Test results taken from ChEMBL document CHEMBL1909294, “Translating clinical findings into knowledge in drug safety evaluation--drug induced liver injury prediction system (DILIps)” (PLoS Comput Biol, 2011).

Assays:
Hepatotoxicity [1] = system: Hepatotoxicity;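 as to HepSE cholecystitis: Cholecystitis-related hepatic side effect score drawn from the DILIps (drug-induced liver injury prediction) training data set; call rule not given here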;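 as to HepSE cholelithiasis: hepatic side effect score for cholelithiasis, drawn from the DILIps training data for predicting drug-induced liver injury; call rule not given here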; as to HepSE hepatic failure: call rule not given here;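 as to HepSE hepatitis: Hepatitis-related hepatic side effect score taken from the training data of DILIps, a prediction system for drug-induced liver injury; call rule not given here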;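 as to HepSE hepatomegaly: hepatic side effect score for hepatomegaly, taken from the training set of the DILIps drug-induced liver injury prediction system; call rule not given here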;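 as to HepSE jaundice: Jaundice-related hepatic side-effect score drawn from the training data of the DILIps (drug-induced liver injury prediction system); call rule not given here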; as to HepSE liver disease: call rule not given here
Hepatotoxicity [2] = system: Hepatotoxicity; remark: listed apart in the source;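 as to HepSE cholecystitis: Cholecystitis-related hepatic side effect score drawn from the DILIps (drug-induced liver injury prediction) training data set; call rule not given here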;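 as to HepSE cholelithiasis: hepatic side effect score for cholelithiasis, drawn from the DILIps training data for predicting drug-induced liver injury; call rule not given here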; as to HepSE hepatic failure: call rule not given here;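 as to HepSE hepatitis: Hepatitis-related hepatic side effect score taken from the training data of DILIps, a prediction system for drug-induced liver injury; call rule not given here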;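 as to HepSE hepatomegaly: hepatic side effect score for hepatomegaly, taken from the training set of the DILIps drug-induced liver injury prediction system; call rule not given here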;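 as to HepSE jaundice: Jaundice-related hepatic side-effect score drawn from the training data of the DILIps (drug-induced liver injury prediction system); call rule not given here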; as to HepSE liver disease: call rule not given here
Hepatotoxicity [3] = system: Hepatotoxicity; remark: listed apart in the source;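 as to HepSE cholecystitis: Cholecystitis-related hepatic side effect score drawn from the DILIps (drug-induced liver injury prediction) training data set; call rule not given here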;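 as to HepSE cholelithiasis: hepatic side effect score for cholelithiasis, drawn from the DILIps training data for predicting drug-induced liver injury; call rule not given here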; as to HepSE hepatic failure: call rule not given here;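 as to HepSE hepatitis: Hepatitis-related hepatic side effect score taken from the training data of DILIps, a prediction system for drug-induced liver injury; call rule not given here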;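 as to HepSE hepatomegaly: hepatic side effect score for hepatomegaly, taken from the training set of the DILIps drug-induced liver injury prediction system; call rule not given here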;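 as to HepSE jaundice: Jaundice-related hepatic side-effect score drawn from the training data of the DILIps (drug-induced liver injury prediction system); call rule not given here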; as to HepSE liver disease: call rule not given here
Hepatotoxicity [4] = system: Hepatotoxicity; remark: listed apart in the source;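 as to HepSE cholecystitis: Cholecystitis-related hepatic side effect score drawn from the DILIps (drug-induced liver injury prediction) training data set; call rule not given here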; as to HepSE hepatic failure: call rule not given here;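 as to HepSE hepatitis: Hepatitis-related hepatic side effect score taken from the training data of DILIps, a prediction system for drug-induced liver injury; call rule not given here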;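 as to HepSE hepatomegaly: hepatic side effect score for hepatomegaly, taken from the training set of the DILIps drug-induced liver injury prediction system; call rule not given here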;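 as to HepSE jaundice: Jaundice-related hepatic side-effect score drawn from the training data of the DILIps (drug-induced liver injury prediction system); call rule not given here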; as to HepSE liver disease: call rule not given here
Hepatotoxicity [5] = system: Hepatotoxicity; remark: listed apart in the source; as to HepSE hepatic failure: call rule not given here; as to HepSE liver disease: call rule not given here
Hepatotoxicity [6] = system: Hepatotoxicity; remark: listed apart in the source; as to HepSE hepatic failure: call rule not given here; as to HepSE liver disease: call rule not given here
Hepatotoxicity [7] = system: Hepatotoxicity; remark: listed apart in the source
Hepatotoxicity [8] = system: Hepatotoxicity; remark: listed apart in the source
Hepatotoxicity [9] = system: Hepatotoxicity; remark: listed apart in the source
Hepatotoxicity [10] = system: Hepatotoxicity; remark: listed apart in the source
Hepatotoxicity [11] = system: Hepatotoxicity; remark: listed apart in the source
Hepatotoxicity [12] = system: Hepatotoxicity; remark: listed apart in the source
Hepatotoxicity [13] = system: Hepatotoxicity; remark: listed apart in the source
Hepatotoxicity [14] = system: Hepatotoxicity; remark: listed apart in the source

Row | SMILES | HepSE_hepatomegaly (Hepatotoxicity [1]) | HepSE_hepatitis (Hepatotoxicity [2]) | HepSE_hepatic failure (Hepatotoxicity [3]) | HepSE_jaundice (Hepatotoxicity [4]) | HepSE_liver disease (Hepatotoxicity [5]) | HepSE_cholecystitis (Hepatotoxicity [6]) | HepSE_bilirubinemia (Hepatotoxicity [7]) | HepSE_cholelithiasis (Hepatotoxicity [8]) | HepSE_liver fatty (Hepatotoxicity [9]) | HepSE_hepatic necrosis (Hepatotoxicity [10]) | HepSE_cirrhosis (Hepatotoxicity [11]) | HepSE_Combined Scores (Hepatotoxicity [12]) | HepSE_elevated liver function tests (Hepatotoxicity [13]) | HepSE_liver function tests abnormal (Hepatotoxicity [14]) | also measured
1 | C[C@@H]1CN([C@H]2CC[C@](C#N)(c3ccc(F)cc3)CC2)CC[C@]1(C(=O)O)c1ccccc1 [LEVOCABASTINE] | 0 | 0 | 0 | 0 | 0 | 0 | 0 | 0 | 0 | 0 | 0 | 0 | 0 | 0 | –
2 | OCCN1CCN(CCCN2c3ccccc3Sc3ccc(Cl)cc32)CC1 [PERPHENAZINE] | 0 | 0 | 0 | 1 | 0 | 0 | 0 | 0 | 0 | 0 | 0 | 1 | 0 | 0 | –
3 | C=CC1=C(C(=O)O)N2C(=O)[C@@H](NC(=O)/C(=N\OCC(=O)O)c3csc(N)n3)[C@H]2SC1 [CEFIXIME] | 0 | 1 | 0 | 1 | 0 | 0 | 1 | 0 | 0 | 0 | 0 | 3 | 0 | 0 | –
4 | COc1cccc(C2(O)CCCCC2CN(C)C)c1 (configuration not stated) [TRAMADOL] | 0 | 1 | 1 | 0 | 0 | 1 | 0 | 1 | 0 | 0 | 0 | 5 | 0 | 1 | –
5 | FC(F)OC(Cl)C(F)(F)F (configuration not stated) [ISOFLURANE] | 0 | 1 | 1 | 1 | 0 | 0 | 0 | 0 | 0 | 1 | 0 | 4 | 0 | 0 | –
6 | COc1cc2nc(N3CCN(C(=O)C4CCCO4)CC3)nc(N)c2cc1OC (configuration not stated) [TERAZOSIN] | 0 | 0 | 0 | 1 | 0 | 0 | 0 | 0 | 0 | 0 | 0 | 1 | 0 | 0 | –
7 | CN1CCCCC1CCN1c2ccccc2Sc2ccc([S+](C)[O-])cc21 (configuration not stated) [MESORIDAZINE] | – | – | – | – | – | – | – | – | – | – | – | – | – | – | HepSE_hepatomegaly (Hepatotoxicity [1]; Liver): 0; HepSE_hepatitis (Hepatotoxicity [2]; Liver): 0; HepSE_hepatic failure (Hepatotoxicity [3]; Liver): 0; HepSE_jaundice (Hepatotoxicity [4]; Liver): 1; HepSE_liver disease (Hepatotoxicity [5]; Liver): 0; HepSE_cholecystitis (Hepatotoxicity [6]; Liver): 0; HepSE_bilirubinemia (Hepatotoxicity [7]; Liver): 0; HepSE_cholelithiasis (Hepatotoxicity [8]; Liver): 0; HepSE_liver fatty (Hepatotoxicity [9]; Liver): 0; HepSE_hepatic necrosis (Hepatotoxicity [10]; Liver): 0; HepSE_cirrhosis (Hepatotoxicity [11]; Liver): 0; HepSE_Combined Scores (Hepatotoxicity [12]; Liver): 1; HepSE_elevated liver function tests (Hepatotoxicity [13]; Liver): 0; HepSE_liver function tests abnormal (Hepatotoxicity [14]; Liver): 0
8 | C[N+](C)(C)CCO.Cn1c(=O)c2[n-]cnc2n(C)c1=O [OXTRIPHYLLINE] | 0 | 0 | 0 | 0 | 0 | 0 | 0 | 0 | 0 | 0 | 0 | 0 | 0 | 0 | –
9 | CCCSc1ccc2nc(NC(=O)OC)[nH]c2c1 [ALBENDAZOLE] | 0 | 1 | 1 | 0 | 1 | 0 | 0 | 0 | 0 | 0 | 0 | 3 | 0 | 0 | –
10 | C[C@@H](O)C(=O)O [D-LACTIC ACID] | 0 | 0 | 0 | 0 | 0 | 0 | 0 | 0 | 0 | 0 | 0 | 0 | 0 | 0 | –
11 | Cc1nccn1CC1CCc2c(c3ccccc3n2C)C1=O (configuration not stated) [ONDANSETRON] | 0 | 0 | 1 | 0 | 1 | 0 | 0 | 0 | 0 | 0 | 0 | 2 | 0 | 0 | –
12 | C=CC[N+]1([C@H]2C[C@H]3[C@@H]4CC[C@H]5C[C@H](O)[C@@H](N6CCOCC6)C[C@]5(C)[C@H]4CC[C@]3(C)[C@H]2OC(C)=O)CCCC1 [ROCURONIUM] | 0 | 0 | 0 | 0 | 0 | 0 | 0 | 0 | 0 | 0 | 0 | 0 | 0 | 0 | –
13 | CN(CCOc1ccc(NS(C)(=O)=O)cc1)CCc1ccc(NS(C)(=O)=O)cc1 [DOFETILIDE] | 0 | 0 | 0 | 0 | 0 | 0 | 0 | 0 | 0 | 0 | 0 | 0 | 0 | 0 | –
